# Experimental data from patent US10968193B2, “Antidiabetic bicyclic compounds” (Merck Sharp & Dohme Corp., priority 2014, dated 2021).
# Target: T1, human GPR40 (Homo sapiens, UniProt O14842)
# T1 construct: expressed in transfected cells; host or cells: HEK cells stably expressing the aequorin reporter
# Assay: Inositol Phosphate Turnover (IP1) Assay 3
# Format: cell-based
# Settings: HEK cells stably expressing human GPR40
# Method: Human and mouse GPR40 stable cell-lines were generated in CHO cells stably expressing NFAT BLA (Beta-lactamase). A human GPR40 stable cell-line was generated in HEK cells stably expressing the aequorin expressing reporter. The expression plasmids were transfected using lipofectamine (Life Technologies) following manufacturer's instructions. Stable cell-lines were generated following drug selection.
# Inositol Phosphate Turnover (IP1) Assay 3:
# The assay was performed in 384-well format. HEK cells stably expressing human GPR40 were plated at 7500 cells per well in growth medium (DMEM/10% fetal calf serum). Cell plates were then incubated 16 hours at 37 degrees in a 5% CO2 incubator.
# Measurement of Inositol Phosphate Turnover (IP) was performed using the CisBio IP-One kit (Part number 62IPAPEB). After the 16 hour incubation, the growth media was removed by centrifugation using the BlueWasher (AusWasher GUI Ver. v1.0.1.8) Protocol #21—“Light Dry” and 10 ul of stimulation buffer (prepared as described in the kit) was added to each well. In a separate plate, compounds were diluted in DMSO (200-fold over the final concentration in the assay well) and 50 nl was acoustically transferred to the appropriate well in the assay cell plate. The plates were then incubated for 60 minutes at 37 degrees in a 5% CO2 incubator. 10 ul of detection buffer (also prepared as described in the IP-One kit) was added to each well and the plates were incubated at rt for 60 minutes in the dark. The plates were then read in a Perkin Elmer EnVision or equivalent reader able to measure FRET. Fluorescent ratio of emission at 665 and 620 nm was then converted to IP1 concentration by back calculating from an IP1 standard curve prepared at the time of the assay. Data is normalized to % activity using a reference compound and EC50s determined using a standard 4-parameter fit.
# T1 sequence (O14842 whole entry): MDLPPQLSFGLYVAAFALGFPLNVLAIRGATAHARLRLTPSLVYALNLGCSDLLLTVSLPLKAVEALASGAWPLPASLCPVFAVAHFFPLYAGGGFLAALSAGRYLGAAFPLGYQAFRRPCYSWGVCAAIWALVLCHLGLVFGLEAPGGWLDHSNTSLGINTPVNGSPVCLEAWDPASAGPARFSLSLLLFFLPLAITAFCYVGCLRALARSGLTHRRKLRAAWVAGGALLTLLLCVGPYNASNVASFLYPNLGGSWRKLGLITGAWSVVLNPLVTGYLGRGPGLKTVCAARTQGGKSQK
row,Structure (SMILES),EC50
1,"COc1cc(-c2ccc(C3CCc4ccc([C@H](C5CC5)[C@H](C)C(=O)O)cc4O3)c(CN(C(C)C)C(C)C)c2)ccn1 (single isomer, unassigned) [Example 115a]",0.1 nM
2,"COc1cc(-c2ccc(C3CCc4ccc([C@H](C5CC5)[C@H](C)C(=O)O)cc4O3)c(CN(C(C)C)C(C)C)c2)ccn1 (single isomer, unassigned) [Example 115b]",5.3 nM
3,"COc1cc(-c2ccc(C3CCc4ccc([C@H](C5CC5)[C@H](C)C(=O)O)cc4O3)c(CN3[C@H](C)CC[C@H]3C)c2)ccn1 (single isomer, unassigned) [Example 116a]",1.7 nM
4,"COc1cc(-c2ccc(C3CCc4ccc([C@H](C5CC5)[C@H](C)C(=O)O)cc4O3)c(CN3[C@H](C)CC[C@H]3C)c2)ccn1 (single isomer, unassigned) [Example 116b]",1 nM
5,"COc1cc(-c2ccc(C3CCc4ccc([C@H](C5CC5)[C@H](C)C(=O)O)cc4O3)c(CN3[C@H](C)CC[C@H]3C)c2)ccn1 (single isomer, unassigned) [Example 116c]",1000 nM
6,"COc1cc(-c2ccc(C3CCc4ccc([C@H](C5CC5)[C@H](C)C(=O)O)cc4O3)c(CN3[C@H](C)CC[C@H]3C)c2)ccn1 (single isomer, unassigned) [Example 116d]",387 nM
7,"COc1cc(-c2ccc(C3CCc4ccc([C@H](C5CC5)[C@H](C)C(=O)O)cc4O3)c(CN3CCCCC3(C)C)c2)ccn1 (single isomer, unassigned) [Example 117a]",0.4 nM
8,"COc1cc(-c2ccc(C3CCc4ccc([C@H](C5CC5)[C@H](C)C(=O)O)cc4O3)c(CN3CCCCC3(C)C)c2)ccn1 (single isomer, unassigned) [Example 117b]",24 nM
9,"COc1cc(-c2ccc(C3CCc4ccc([C@H](C5CC5)[C@H](C)C(=O)O)cc4O3)c(CN3CCC[C@@H]3C)c2)ccn1 (single isomer, unassigned) [Example 118a]",0.6 nM
10,"COc1cc(-c2ccc(C3CCc4ccc([C@H](C5CC5)[C@H](C)C(=O)O)cc4O3)c(CN3CCC[C@@H]3C)c2)ccn1 (single isomer, unassigned) [Example 118b]",109 nM
11,"COc1cc(-c2ccc(C3CCc4ccc([C@H](C5CC5)[C@H](C)C(=O)O)cc4O3)c(CN3CCC[C@H]3C)c2)ccn1 (single isomer, unassigned) [Example 119a]",308 nM
12,"COc1cc(-c2ccc(C3CCc4ccc([C@H](C5CC5)[C@H](C)C(=O)O)cc4O3)c(CN3CCC[C@H]3C)c2)ccn1 (single isomer, unassigned) [Example 119b]",4.2 nM
13,"COc1cc(-c2ccc(C3CCc4ccc([C@H](C5CC5)[C@H](C)C(=O)O)cc4O3)c(CN3CCCC[C@H]3C)c2)ccn1 (single isomer, unassigned) [Example 120a]",0.4 nM
14,"COc1cc(-c2ccc(C3CCc4ccc([C@H](C5CC5)[C@H](C)C(=O)O)cc4O3)c(CN3CCCC[C@H]3C)c2)ccn1 (single isomer, unassigned) [Example 120b]",41 nM
15,"COc1cc(-c2ccc(C3CCc4ccc([C@H](C5CC5)[C@H](C)C(=O)O)cc4O3)c(CN3[C@H](C)CC[C@@H]3C)c2)ccn1 (single isomer, unassigned) [Example 122a]",3.3 nM
16,"COc1cc(-c2ccc(C3CCc4ccc([C@H](C5CC5)[C@H](C)C(=O)O)cc4O3)c(CN3[C@H](C)CC[C@@H]3C)c2)ccn1 (single isomer, unassigned) [Example 122b]",190 nM
17,"COc1cc(-c2ccc(C3CCc4ccc([C@H](C5CC5)[C@H](C)C(=O)O)cc4O3)c(CN3CCCC3)c2)c(F)cn1 (single isomer, unassigned) [Example 123a]",91 nM
18,"COc1cc(-c2ccc(C3CCc4ccc([C@H](C5CC5)[C@H](C)C(=O)O)cc4O3)c(CN3CCCC3)c2)c(F)cn1 (single isomer, unassigned) [Example 123b]",1.4 nM
19,"CCN(Cc1cc(-c2cc(OC)ncc2F)ccc1C1CCc2ccc([C@H](C3CC3)[C@H](C)C(=O)O)cc2O1)C(C)C (single isomer, unassigned) [Example 124a]",0.09 nM
